Experimental data reported in PubChem BioAssay (NCI).
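Exposure lasted 48 hours, with cells grown in 96-well plates and compounds tested at five concentrations. GI50 is the concentration that inhibits growth by half. At the TGI there is no net growth.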

Columns and labels:
Assay in all cases: inhibition of tumour cell growth, NCI panel, 48 h
LXFL 529 NSCLC = tested on: LXFL 529 NSCLC
DMS 114 small cell lung = tested on: DMS 114 small cell lung
DLD-1 colon = tested on: DLD-1 colon
NCI/ADR-RES ovarian = tested on: NCI/ADR-RES ovarian
MDA-MB-435 = tested on: MDA-MB-435
MCF7 breast = tested on: MCF7 breast
PC-3 prostate = tested on: PC-3 prostate
HS 578T breast = tested on: HS 578T breast
KM20L2 colon = tested on: KM20L2 colon
HOP-18 NSCLC = tested on: HOP-18 NSCLC

N#CCCc1nc2ccc(Br)cc2c(=O)n1CCO
TGI (LXFL 529 NSCLC): > 100 µM | TGI (DMS 114 small cell lung): > 100 µM | TGI (DLD-1 colon): > 100 µM

O=C(Oc1ccc(O)c2c(=O)n3c(cc12)[nH]c1ccccc13)c1ccccc1
GI50 (NCI/ADR-RES ovarian): 18.7 µM | TGI (NCI/ADR-RES ovarian): 55 µM | GI50 (MDA-MB-435): 28.5 µM | TGI (MDA-MB-435): 89.9 µM | GI50 (MCF7 breast): 74.1 µM | TGI (MCF7 breast): > 100 µM | GI50 (PC-3 prostate): 18.2 µM | TGI (PC-3 prostate): 56 µM | GI50 (HS 578T breast): 41.1 µM | TGI (HS 578T breast): > 100 µM

Cc1cc(S(=O)(=O)Nc2nc(N)nc(N3N=CCC3C)n2)c(S)cc1Cl (stereo unspecified)
TGI (NCI/ADR-RES ovarian): > 10 µM | TGI (MCF7 breast): > 10 µM | TGI (PC-3 prostate): > 10 µM | TGI (HS 578T breast): > 10 µM

O=c1ccn(C2OC(CO)C(O)C2O)c(=O)[nH]1 (stereo unspecified)
GI50 (NCI/ADR-RES ovarian): > 1000 µM | TGI (NCI/ADR-RES ovarian): > 1000 µM | GI50 (MDA-MB-435): > 1000 µM | TGI (MDA-MB-435): > 1000 µM | GI50 (MCF7 breast): > 1000 µM | TGI (MCF7 breast): > 1000 µM | GI50 (PC-3 prostate): > 1000 µM | TGI (PC-3 prostate): > 1000 µM | GI50 (HS 578T breast): > 1000 µM | TGI (HS 578T breast): > 1000 µM

CC1(C)C=CC[C@]2(C)[C@H]3CC[C@@H]4[C@H]5[C@H](C(=O)/C=C/c6cccnc6)CC[C@]5(CO)CC[C@@]4(C)[C@]3(C)CC[C@@H]12
GI50 (MDA-MB-435): 1.32 µM | TGI (MDA-MB-435): 2.64 µM | GI50 (PC-3 prostate): 0.505 µM | TGI (PC-3 prostate): 1.91 µM | GI50 (HS 578T breast): 1.51 µM | TGI (HS 578T breast): 3.89 µM

CC(=O)NC(CCCCNC(=O)OCc1ccccc1)C(=O)NCc1ccccc1 (stereo unspecified)
TGI (LXFL 529 NSCLC): > 100 µM | TGI (KM20L2 colon): > 100 µM | TGI (DMS 114 small cell lung): > 100 µM | TGI (DLD-1 colon): > 100 µM

CC[N+](CCCCCCCCCC[N+](CC)(c1ccccn1)c1ccccn1)(c1ccccn1)c1ccccn1
GI50 (NCI/ADR-RES ovarian): 5.28 µM | TGI (NCI/ADR-RES ovarian): 53.8 µM | GI50 (MDA-MB-435): 0.609 µM | TGI (MDA-MB-435): 4.19 µM | GI50 (MCF7 breast): 0.437 µM | TGI (MCF7 breast): 4.26 µM | GI50 (PC-3 prostate): 0.459 µM | TGI (PC-3 prostate): 11.2 µM

CC1=C2C(O)C(C(C)CO)C(O)CC2(C)C(O)CC1 (stereo unspecified)
TGI (LXFL 529 NSCLC): > 100 µM | TGI (KM20L2 colon): > 100 µM | TGI (DMS 114 small cell lung): > 100 µM | TGI (DLD-1 colon): > 100 µM

CC1=CSC2=NC(c3ccc(Cl)c(Cl)c3)=CC(c3ccc(Cl)cc3)N12 (stereo unspecified)
GI50 (NCI/ADR-RES ovarian): > 100 µM | TGI (NCI/ADR-RES ovarian): > 100 µM | GI50 (MDA-MB-435): > 100 µM | TGI (MDA-MB-435): > 100 µM | GI50 (MCF7 breast): > 100 µM | TGI (MCF7 breast): > 100 µM | GI50 (PC-3 prostate): > 100 µM | TGI (PC-3 prostate): > 100 µM | GI50 (HS 578T breast): > 100 µM | TGI (HS 578T breast): > 100 µM

CC(=O)CC1CCC(=O)CCC(=O)OC(CC(C)=O)CCC(=O)CCC(=O)O1 (stereo unspecified)
TGI (NCI/ADR-RES ovarian): > 100 µM | TGI (MDA-MB-435): > 100 µM | TGI (MCF7 breast): > 100 µM | TGI (PC-3 prostate): > 100 µM | TGI (HS 578T breast): > 100 µM

c1cnc2c(c1)-n1cccc1C1(CCSCC1)NN2
TGI (HOP-18 NSCLC): > 100 µM

CC(C)c1ccc(Cc2cnc(NC(=O)c3cc(Br)cs3)s2)cc1
GI50 (NCI/ADR-RES ovarian): 1.73 µM | TGI (NCI/ADR-RES ovarian): 5.31 µM | GI50 (MDA-MB-435): 0.355 µM | TGI (MDA-MB-435): 2.16 µM | GI50 (MCF7 breast): 1.6 µM | TGI (MCF7 breast): > 100 µM | GI50 (PC-3 prostate): 2.23 µM | TGI (PC-3 prostate): > 100 µM | GI50 (HS 578T breast): 2.48 µM | TGI (HS 578T breast): 58.2 µM

c1ccc2c(c1)[I+]c1ccccc1-2
GI50 (NCI/ADR-RES ovarian): > 50 µM | TGI (NCI/ADR-RES ovarian): > 50 µM | GI50 (MDA-MB-435): > 50 µM | TGI (MDA-MB-435): > 50 µM | GI50 (MCF7 breast): > 50 µM | TGI (MCF7 breast): > 50 µM | GI50 (PC-3 prostate): > 50 µM | TGI (PC-3 prostate): > 50 µM | GI50 (HS 578T breast): > 50 µM | TGI (HS 578T breast): > 50 µM

O=c1oc2ccccc2c(O)c1/C=N\c1nc(-c2ccccc2)cs1
TGI (NCI/ADR-RES ovarian): 63.5 µM | TGI (MDA-MB-435): 20.6 µM | TGI (MCF7 breast): 14.1 µM | TGI (PC-3 prostate): 31.2 µM | TGI (HS 578T breast): 89.7 µM

O=C(Nc1ccc(Cl)cc1)Nc1ccc(Cl)c(Cl)c1
GI50 (NCI/ADR-RES ovarian): 3.6 µM | TGI (NCI/ADR-RES ovarian): > 100 µM | GI50 (MDA-MB-435): 3.4 µM | TGI (MDA-MB-435): > 100 µM | GI50 (MCF7 breast): 2.27 µM | TGI (MCF7 breast): 8.9 µM | GI50 (PC-3 prostate): 2.97 µM | TGI (PC-3 prostate): > 100 µM | GI50 (HS 578T breast): 4.58 µM | TGI (HS 578T breast): 85 µM

Cc1cc(/C=C2\SC(=Nc3ccccc3)N(C3CCCC3)C2=O)c(C)n1-c1ccc(Cl)cc1
GI50 (NCI/ADR-RES ovarian): > 100 µM | TGI (NCI/ADR-RES ovarian): > 100 µM | GI50 (MDA-MB-435): > 100 µM | TGI (MDA-MB-435): > 100 µM | GI50 (MCF7 breast): > 100 µM | TGI (MCF7 breast): > 100 µM | GI50 (PC-3 prostate): 75.5 µM | TGI (PC-3 prostate): > 100 µM | GI50 (HS 578T breast): > 100 µM | TGI (HS 578T breast): > 100 µM

CC#CC(O)(C(=O)OC1CCCN(C)C1)C1=CC=CCC1 (stereo unspecified)
TGI (NCI/ADR-RES ovarian): > 100 µM | TGI (MDA-MB-435): > 100 µM | TGI (MCF7 breast): > 100 µM | TGI (PC-3 prostate): > 100 µM | TGI (HS 578T breast): > 100 µM

CCOC(=O)C(C)(C)Oc1ccc2c(=O)cc(-c3ccc(Cl)cc3)oc2c1
TGI (LXFL 529 NSCLC): > 100 µM | TGI (KM20L2 colon): > 100 µM | TGI (DMS 114 small cell lung): > 100 µM | TGI (DLD-1 colon): > 100 µM

Nc1c(C(=O)c2ccccc2)sc2nc(-c3cccs3)ccc12
GI50 (NCI/ADR-RES ovarian): 0.0537 µM | TGI (NCI/ADR-RES ovarian): 1.81 µM | GI50 (MDA-MB-435): 0.027 µM | TGI (MDA-MB-435): 1.03 µM | GI50 (MCF7 breast): 0.0878 µM | TGI (MCF7 breast): 4.6 µM | GI50 (PC-3 prostate): 0.176 µM | TGI (PC-3 prostate): 10.1 µM | GI50 (HS 578T breast): 0.474 µM | TGI (HS 578T breast): 12.7 µM

Cc1nn(C(=O)c2ccccc2O)c2c1C(c1ccccc1)SC(N)=N2 (stereo unspecified)
TGI (NCI/ADR-RES ovarian): > 10 µM | TGI (MDA-MB-435): > 10 µM | TGI (MCF7 breast): > 10 µM | TGI (PC-3 prostate): > 10 µM | TGI (HS 578T breast): > 10 µM

COc1cc2c(cc1C)NC(=O)/C2=C\c1cc(OC)c(OC)c(OC)c1
GI50 (NCI/ADR-RES ovarian): > 100 µM | TGI (NCI/ADR-RES ovarian): > 100 µM | GI50 (MDA-MB-435): > 100 µM | TGI (MDA-MB-435): > 100 µM | GI50 (MCF7 breast): 42.2 µM | TGI (MCF7 breast): > 100 µM | GI50 (PC-3 prostate): > 100 µM | TGI (PC-3 prostate): > 100 µM | GI50 (HS 578T breast): 58.3 µM | TGI (HS 578T breast): > 100 µM

CCN(CC)CCNc1c(OC)cc(C)c2sc3ccccc3c(=O)c12
TGI (NCI/ADR-RES ovarian): 19.2 µM | TGI (MDA-MB-435): 8.16 µM | TGI (MCF7 breast): 18.7 µM | TGI (PC-3 prostate): 20.8 µM | TGI (HS 578T breast): 24.8 µM

COc1cc([C@H](C)c2ccc3ccccc3c2)cc(OC)c1OC
GI50 (NCI/ADR-RES ovarian): 0.145 µM | TGI (NCI/ADR-RES ovarian): > 100 µM | GI50 (PC-3 prostate): 0.346 µM | TGI (PC-3 prostate): > 100 µM | GI50 (HS 578T breast): 0.303 µM | TGI (HS 578T breast): > 100 µM

COc1cc(-c2cnn(C)c2)ccc1Nc1ncc2ccnc(N[C@@H](C)C(C)(C)C)c2n1
GI50 (NCI/ADR-RES ovarian): > 43.4 µM | TGI (NCI/ADR-RES ovarian): > 100 µM | GI50 (MDA-MB-435): > 75.1 µM | TGI (MDA-MB-435): > 100 µM | GI50 (MCF7 breast): > 63.1 µM | TGI (MCF7 breast): > 100 µM | GI50 (PC-3 prostate): > 96.1 µM | TGI (PC-3 prostate): > 100 µM | GI50 (HS 578T breast): > 79 µM | TGI (HS 578T breast): > 100 µM

C=CCn1c(C)nc2cc(Nc3nc(Nc4ccc5nc(C)n(CC=C)c5c4)c4ccccc4n3)ccc21
GI50 (NCI/ADR-RES ovarian): 2.03 µM | TGI (NCI/ADR-RES ovarian): 5.27 µM | GI50 (MCF7 breast): 0.224 µM | TGI (MCF7 breast): 0.554 µM | GI50 (HS 578T breast): 2.02 µM | TGI (HS 578T breast): 5.22 µM

COc1cc(/C=C/c2cc(C(F)(F)F)[nH]c(=O)n2)ccc1OCc1ccccc1F
GI50 (NCI/ADR-RES ovarian): 14.7 µM | TGI (NCI/ADR-RES ovarian): > 100 µM | GI50 (MDA-MB-435): 3.77 µM | TGI (MDA-MB-435): 17 µM | GI50 (MCF7 breast): 4.13 µM | TGI (MCF7 breast): 17.3 µM | GI50 (PC-3 prostate): 9.06 µM | TGI (PC-3 prostate): 29 µM | GI50 (HS 578T breast): 32 µM | TGI (HS 578T breast): > 100 µM
